{"source": "patent US8076332B2", "about": "“N- (2-aminophenyl) benzamide derivative having urea structure” (Santen Pharmaceutical Co., Ltd., priority 2006, dated 2011)", "system": "human trabecular meshwork cell line (TM-1 cells)", "experiment": "Test for evaluation of effect of morphological change on trabecular meshwork cells (cell shape index, CSI)", "format": "cell-based", "details": "final concentration 10 μM, incubation 24 hours, CSI=4π×(Cell Area)/(Cell Perimeter)^2, average per group, Control 0.730", "procedure": "1. Test for Evaluation of Effect of Morphological Change on Trabecular Meshwork Cells\nAs a method for evaluating a cellular morphological change, an evaluation system using the cell shape index (hereinafter referred to as “CSI”) as an index has been reported in The Journal of Clinical Investigation, 103, 1141-1150 (1999). Therefore, according to the method described in the above document, an effect of morphological change of the present compounds on trabecular meshwork cells was evaluated.\nA human trabecular meshwork cell line (hereinafter referred to as “TM-1 cells”) reported in Investigative Opthalmology & Visual Science, 43, 151-161 (2002) was used.\nCulture medium 1: A reagent was prepared by adding fetal bovine serum (10%), L-glutamine (2 mM), amphotericin B (2.5 μg/mL), and gentamicin (25 μg/mL) to Dulbecco's modified Eagle medium (hereinafter referred to as “D-MEM”).\nCulture medium 2: Fetal bovine serum (3%), L-glutamine (2 mM), amphotericin B (2.5 μg/mL), and gentamicin (25 μg/mL) were added to D-MEM.\nCell staining liquid: A mixed liquid of Calcein-AM (16 μM) and Hoechst 33342 (40 μM) was prepared by diluting a Calcein-AM solution (cytoplasmic staining reagent, manufactured by Dojindo Laboratories) and a Hoechst 33342 solution (nuclear staining reagent, manufactured by Dojindo Laboratories) with D-MEM containing L-glutamine (2 mM), amphotericin B (2.5 μg/mL), and gentamicin (25 μg/mL).\nTM-1 cells subcultured at 37° C. in a 8% carbon dioxide gas atmosphere were treated with a trypsin/EDTA solution (0.05% trypsin and 0.53 mM tetrasodium ethylenediaminetetraacetate) at 24 hours before performing a drug treatment mentioned below and seeded on a 96-well culture plate. The culture medium 1 was used for the subculture of the cells. The culture medium 2 was used for the cell culture after seeding the cells on the plate.\nA test compound was dissolved in dimethyl sulfoxide, whereby a 5 mM solution was prepared. Then, the resulting solution was diluted with the culture medium 2, whereby a 200 μM test compound solution was prepared.\nIt has been reported that Y-27632 which is a Rho kinase inhibitor induces a morphological change in trabecular meshwork cells in Investigative Ophthalmology & Visual Science, 42, 137-144 (2001). Therefore, Y-27632 (produced according to the method described in WO 90/05723) was used as a positive control, and dissolved in dimethyl sulfoxide in the same manner as the test compound, whereby a 5 mM solution was prepared, and then, the resulting solution was diluted with the culture medium 2, whereby a 200 μM positive control compound solution was prepared.\n1) To a 96-well culture plate, a solution of TM-1 cells adjusted to a cell density of […] was added in an amount of 95 μL (1.5×10^4 cells) per well.\n2) Incubation was performed at 37° C. in a 8% carbon dioxide gas atmosphere for 24 hours.\n3) The test compound solution or positive control compound solution was added in an amount of 5 μL per well (the final concentration of the test compound or positive control compound was 10 μM). As a control, the culture medium 2 containing dimethyl sulfoxide (4%) was added in an amount of 5 μL per well.\n4) Incubation was performed at 37° C. in a 8% carbon dioxide gas atmosphere for 24 hours.\n5) The cell staining liquid was added in an amount of 10 μL per well.\n6) Incubation was performed at 37° C. in a 8% carbon dioxide gas atmosphere for 1 hour to stain the cells.\n7) A 37% formaldehyde solution was added in an amount of 10 μL per well.\n8) Incubation was performed at room temperature for 1 hour to fix the cells.\n9) Washing with phosphate-buffered saline was performed.\n10) Using Array Scan Vti HCS reader (manufactured by Cellomics), images of stained cells magnified with a 20 times objective lens were captured in 80 fields (10 fields×8 wells) per test compound addition group.\n11) CSI was calculated for each cell and an average value was obtained for each test compound addition group. […]", "data": [{"smiles": "CNCCN(Cc1ccc(C(=O)Nc2ccccc2N)cc1)C(=O)NC1CCCC1", "note": "[Compound 1-22, N-(2-Aminophenyl)-4-[3-cyclo-pentyl-1-(2-methylamino-ethyl)ureidomethyl]benz-amide]", "values": [{"measurement": "CSI", "result": 0.619}]}, {"smiles": "CN(C)CC(C)(C)CN(Cc1ccc(C(=O)Nc2ccccc2N)cc1)C(=O)Nc1ccc(CC#N)cc1", "note": "[Compound 1-38, N-(2-Aminophenyl)-4-[3-(4-cyanomethylphenyl)-1-(3-dimethylamino-2,2-dimethyl-propyl)ureidomethyl]benz-amide]", "values": [{"measurement": "CSI", "result": 0.616}]}, {"smiles": "CN1CCCC1CCN(Cc1ccc(C(=O)Nc2ccccc2N)cc1)C(=O)Nc1ccc(F)c(F)c1", "note": "(stereo not shown) [Compound 1-97, N-(2-Aminophenyl)-4-[3-(3,4-difluorophenyl)-1-[2-(1-methylpyrrolidin-2-yl)-ethyl]ureidomethyl]benzamide]", "values": [{"measurement": "CSI", "result": 0.595}]}, {"smiles": "CN(C)CCCN(Cc1ccc(C(=O)Nc2ccccc2N)cc1)C(=O)Nc1cccc(OCc2ccccc2)c1", "note": "[Compound 1-76, N-(2-aminophenyl)-4-[3-(3-benzyloxyphenyl)-1-(3-dimethylaminopropyl)ureidomethyl]benzamide]", "values": [{"measurement": "CSI", "result": 0.649}]}, {"smiles": "CN1CCN(CCN(Cc2ccc(C(=O)Nc3ccccc3N)cc2)C(=O)Nc2ccc3c(c2)OCCO3)CC1", "note": "[Compound 1-94, N-(2-Aminophenyl)-4-[3-(2,3-dihydrobenzo[1,4]dioxin-6-yl)-1-[2-(4-methylpiper-azin-1-yl)ethyl]ureidomethyl] benzamide]", "values": [{"measurement": "CSI", "result": 0.595}]}, {"smiles": "Nc1ccccc1NC(=O)c1ccc(CN(CCCN2CCOCC2)C(=O)Nc2ccsc2)cc1", "note": "[Compound 1-134, N-(2-Aminophenyl)-4-[1-(3-(morpholin-4-yl)propyl]-3-(thiophen-3-yl)ureido-methyl]benzamide]", "values": [{"measurement": "CSI", "result": 0.580}]}, {"smiles": "Nc1ccccc1NC(=O)c1ccc(CN(CC2CCNCC2)C(=O)Nc2ccc(Cl)cc2)cc1", "note": "[Compound 1-34, N-(2-Aminophenyl)-4-[3-(4-chlorophenyl)-1-(piperidin-4-ylmethyl)ureidomethyl] benzamide]", "values": [{"measurement": "CSI", "result": 0.681}]}, {"smiles": "NCCCN(Cc1ccc(C(=O)Nc2ccccc2N)cc1)C(=O)Nc1ccc2c(c1)OCCO2", "note": "[Compound 1-39, N-(2-Aminophenyl)-4-[1-(3-aminopropyl)-3-(2,3-di-hydrobenzo[1,4]dioxin-6-yl)ureidomethyl]benzamide]", "values": [{"measurement": "CSI", "result": 0.615}]}, {"smiles": "COc1ccc(N)c(NC(=O)c2ccc(CN(CCN(C)C)C(=O)Nc3ccc4c(c3)CCC4)cc2)c1", "note": "[Compound 1-107, N-(2-Amino-5-methoxyphenyl)-4-[1-(2-dimethylamino-ethyl)-3-(indan-5-yl)ureod-methyl]benzamide]", "values": [{"measurement": "CSI", "result": 0.663}]}, {"smiles": "COc1cccc(NC(=O)N(CCCN2CCOCC2)Cc2ccc(C(=O)Nc3ccccc3N)cc2)c1", "note": "[Compound 1-58, N-(2-Aminophenyl)-4-[3-(3-methoxyphenyl)-1-[3-(mor-pholin-4-yl)propyl]ureido-methyl]benzamide]", "values": [{"measurement": "CSI", "result": 0.610}]}, {"smiles": "CCOC(=O)CNC(=O)N(CCCN(C)C)Cc1ccc(C(=O)Nc2ccccc2N)cc1", "note": "[Compound 2-4]", "values": [{"measurement": "CSI", "result": 0.664}]}, {"smiles": "CN(C)CCCN(Cc1ccc(C(=O)Nc2ccccc2N)cc1)C(=O)Nc1cccc(O)c1", "note": "[Compound 3-1, N-(2-Aminophenyl)-4-[1-(3-dimethylaminopropyl)-3-(3-hydroxyphenyl)ureidomethyl]benzamide]", "values": [{"measurement": "CSI", "result": 0.616}]}, {"smiles": "CN(C)CCN(Cc1ccc(C(=O)Nc2ccccc2N)cc1)C(=O)NCCc1ccccc1", "note": "[Compound 1-4, N-(2-Aminophenyl)-4-[1-(2-dimethylaminoethyl)-3-phenethylureidomethyl]benz-amide]", "values": [{"measurement": "CSI", "result": 0.545}]}, {"smiles": "CN(C)CCCN(Cc1ccc(C(=O)Nc2ccccc2N)cc1)C(=O)NCCc1ccccc1", "note": "[Compound 1-28, N-(2-Aminophenyl)-4-[1-(3-dimethylaminopropyl)-3-phenylethylureidomethyl]benz-amide]", "values": [{"measurement": "CSI", "result": 0.514}]}, {"smiles": "CC1CCN(CCCN(Cc2ccc(C(=O)Nc3ccccc3N)cc2)C(=O)Nc2ccc3c(c2)OCCO3)CC1", "note": "[Compound 1-128, N-(2-Aminophenyl)-4-[3-(2,3-dihydrobenzo[1,4]dioxin-6-yl)-1-[3-(4-methylpiper-idin-1-yl)propyl]ureido-methyl]benzamide]", "values": [{"measurement": "CSI", "result": 0.554}]}, {"smiles": "C[C@@H](N)[C@H]1CC[C@H](C(=O)Nc2ccncc2)CC1", "note": "[Compound Y-27632, reference compound]", "values": [{"measurement": "CSI", "result": 0.600}]}, {"smiles": "COC(=O)c1ccc(NC(=O)N(CCCN(C)C)Cc2ccc(C(=O)Nc3ccccc3N)cc2)cc1", "note": "[Compound 1-46, N-(2-aminophenyl)-4-[1-(3-dimethylaminopropyl)-3-(4-methoxycarbonylphenyl)ureidomethyl]benzamide]", "values": [{"measurement": "CSI", "result": 0.581}]}, {"smiles": "CN(C)CCCN(Cc1ccc(C(=O)Nc2ccccc2N)cc1)C(=O)NC(C)(C)C", "note": "[Compound 2-5, N-(2-Aminophenyl)-4-[3-t-butyl-1-(3-dimethylaminopropyl)ureidomethyl]benzamide]", "values": [{"measurement": "CSI", "result": 0.570}]}, {"smiles": "CN(C)CCCCN(Cc1ccc(C(=O)Nc2ccccc2N)cc1)C(=O)Nc1ccc(N(C)C)cc1", "note": "[Compound 1-53, N-(2-Aminophenyl)-4-[1-(4-dimethylaminobutyl)-3-(4-dimethylaminoiphenyl)ureido-methyl]benzamide]", "values": [{"measurement": "CSI", "result": 0.538}]}, {"smiles": "Nc1ccccc1NC(=O)c1ccc(CN(CC(O)CO)C(=O)Nc2ccc3c(c2)CCC3)cc1", "note": "(stereo not shown) [Compound 1-16, N-(2-Aminophenyl)-4-[1-(2,3-dihydroxypropyl)-3-(indan-5-yl)ureidomethyl]benz-amide]", "values": [{"measurement": "CSI", "result": 0.616}]}, {"smiles": "Nc1ccc(NC(=O)N(CCCN2CCOCC2)Cc2ccc(C(=O)Nc3ccccc3N)cc2)cc1", "note": "[Compound 1-66, N-(2-Aminophenyl)-4-[3-(4-aminophenyl)-1-[3-(mor-pholin-4-yl)propyl]ureidomethyl] benzamide]", "values": [{"measurement": "CSI", "result": 0.624}]}, {"smiles": "Nc1ccccc1NC(=O)c1ccc(CN(CCCN2CCOCC2)C(=O)Nc2ncc([N+](=O)[O-])s2)cc1", "note": "[Compound 1-165, N-(2-Aminophenyl)-4-[1-(3-(morpholin-4-yl)propyl]-3-(5-nitrothiazol-2-yl)ureido-methyl]benzamide]", "values": [{"measurement": "CSI", "result": 0.578}]}, {"smiles": "CN(C)c1ccc(NC(=O)N(CCCN2CCOCC2)Cc2ccc(C(=O)Nc3ccccc3N)cc2)cc1", "note": "[Compound 1-31, N-(2-Aminophenyl)-4-[3-(4-dimethylaminophenyl)-1-[3-(morpholin-4-yl)propyl]ureidomethyl]benzamide]", "values": [{"measurement": "CSI", "result": 0.632}]}, {"smiles": "CN(C)CCN(Cc1ccc(C(=O)Nc2ccccc2N)cc1)C(=O)Nc1ccccc1", "note": "[Compound 1-2, N-(2-Aminophenyl)-4-[1-(2-dimethylaminoerthyl)-3-phenyl-ureidomethyl]benzamide]", "values": [{"measurement": "CSI", "result": 0.599}]}, {"smiles": "CN(C)CCCN(Cc1ccc(C(=O)Nc2ccccc2N)cc1)C(=O)Nc1ccc(F)c([N+](=O)[O-])c1", "note": "[Compound 1-102, N-(2-Aminophenyl)-4-[1-(3-dimethylaminopropyl)-3-(4-fluoro-3-nitrophenyl)ureido-methyl]benzamide]", "values": [{"measurement": "CSI", "result": 0.538}]}, {"smiles": "CN(C)c1ccc(NC(=O)N(CCCN2CCCC2=O)Cc2ccc(C(=O)Nc3ccccc3N)cc2)cc1", "note": "[Compound 1-43, N-(2-Aminophenyl)-4-[3-(4-dimethylaminophenyl)-1-[3-(pyrrolidin-2-on-1-yl)propyl]ureidomethyl]benzamide]", "values": [{"measurement": "CSI", "result": 0.679}]}, {"smiles": "CN(C)c1ccc(NC(=O)N(CCO)Cc2ccc(C(=O)Nc3ccccc3N)cc2)cc1", "note": "[Compound 1-47, N-(2-Aminophenyl)-4-[3-(4-dimethylaminophenyl)-1-(2-hydroxyethyol)ureidomethyl] benzamide]", "values": [{"measurement": "CSI", "result": 0.613}]}, {"smiles": "Nc1ccccc1NC(=O)c1ccc(CN(CCCN2CCCC2)C(=O)Nc2ccc3c(c2)OCCO3)cc1", "note": "[Compound 1-169, N-(2-Aminophenyl)-4-[3-(2,3-dihydrobenzo[1,4]dioxin-6-yl)-1-[3-(pyrrolidin-1-yl)propyl]ureidomethyl]benz-amide]", "values": [{"measurement": "CSI", "result": 0.566}]}]}
